Assay results as given in patent US11208412B2 (DAEGU-GYEONGBUK MEDICAL INNOVATION FOUNDATION, priority 2017, dated 2021).

Key:
Assay in all cases: Kinase selectivity, DiscoverX scanMAX Kinase assay panel (% control)
Type in all cases: binding
[1] = biological target: T1, kinases of the scanMAX Kinase assay panel (Homo sapiens, UniProt O00750); conditions: PIK3C2B; 1 uM
T1 construct: purchased DiscoverX Co. (contract measurement) scanMAX Kinase assay panel
Procedure, shortened: (§1)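 Single-point screen, 1 uM cpd in DMSO. % ctrl = (cpd − pos ctrl)/(neg ctrl − pos ctrl)×100; pos ctrl = 0%, DMSO neg ctrl = 100%. Hit cutoff <35%.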

[2] = biological target: T2, kinases of the scanMAX Kinase assay panel (Homo sapiens, UniProt O14757); conditions: CHEK1; 1 uM
T2 construct: purchased DiscoverX Co. (contract measurement) scanMAX Kinase assay panel
T2 sequence (O14757 1-476): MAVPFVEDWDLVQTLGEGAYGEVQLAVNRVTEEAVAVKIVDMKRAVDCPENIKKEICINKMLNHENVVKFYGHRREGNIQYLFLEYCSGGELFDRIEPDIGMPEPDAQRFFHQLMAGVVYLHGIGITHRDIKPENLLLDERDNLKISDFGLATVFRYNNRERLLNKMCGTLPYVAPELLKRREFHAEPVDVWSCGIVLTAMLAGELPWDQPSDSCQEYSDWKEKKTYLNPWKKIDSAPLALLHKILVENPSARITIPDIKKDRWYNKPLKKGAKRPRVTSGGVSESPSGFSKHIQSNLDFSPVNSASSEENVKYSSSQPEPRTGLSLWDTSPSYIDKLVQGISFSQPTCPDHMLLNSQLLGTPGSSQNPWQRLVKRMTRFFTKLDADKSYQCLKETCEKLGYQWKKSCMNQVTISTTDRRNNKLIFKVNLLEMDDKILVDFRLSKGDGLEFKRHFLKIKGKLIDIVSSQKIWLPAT
Procedure, shortened: as §1

[3] = biological target: T3, kinases of the scanMAX Kinase assay panel (Homo sapiens, UniProt P00533, G719S); conditions: EGFR(G719S); 1 uM
T3 construct: purchased DiscoverX Co. (contract measurement) scanMAX Kinase assay panel
Procedure, shortened: as §1

[4] = biological target: T4, kinases of the scanMAX Kinase assay panel (Homo sapiens, UniProt P09769); conditions: FGR; 1 uM
T4 construct: purchased DiscoverX Co. (contract measurement) scanMAX Kinase assay panel
Procedure, shortened: as §1

[5] = biological target: T5, kinases of the scanMAX Kinase assay panel (Homo sapiens, UniProt P42336, E542K); conditions: PIK3CA(E542K); 1 uM
T5 construct: purchased DiscoverX Co. (contract measurement) scanMAX Kinase assay panel
Procedure, shortened: as §1

[6] = biological target: T6, kinases of the scanMAX Kinase assay panel (Homo sapiens, UniProt P49137); conditions: MAPKAPK2; 1 uM
T6 construct: purchased DiscoverX Co. (contract measurement) scanMAX Kinase assay panel
Procedure, shortened: as §1

[7] = biological target: T7, kinases of the scanMAX Kinase assay panel (Homo sapiens, UniProt P57059); conditions: kinase SIK; 1 uM in DMSO
T7 construct: purchased DiscoverX Co. (contract measurement) scanMAX Kinase assay panel
Procedure, shortened: as §1

[8] = biological target: T8, kinases of the scanMAX Kinase assay panel (Homo sapiens, UniProt Q04759); conditions: PRKCQ; 1 uM
T8 construct: purchased DiscoverX Co. (contract measurement) scanMAX Kinase assay panel
Procedure, shortened: as §1

[9] = biological target: T9, kinases of the scanMAX Kinase assay panel (Homo sapiens, UniProt Q08345); conditions: DDR1; 1 uM
T9 construct: purchased DiscoverX Co. (contract measurement) scanMAX Kinase assay panel
Procedure, shortened: as §1

[10] = biological target: T10, kinases of the scanMAX Kinase assay panel (Homo sapiens, UniProt Q16513); conditions: PKN2; 1 uM
T10 construct: purchased DiscoverX Co. (contract measurement) scanMAX Kinase assay panel
Procedure, shortened: as §1

[11] = biological target: T11, kinases of the scanMAX Kinase assay panel (Homo sapiens, UniProt Q8N4C8); conditions: MINK; 1 uM
T11 construct: purchased DiscoverX Co. (contract measurement) scanMAX Kinase assay panel
Procedure, shortened: as §1

[12] = biological target: T12, kinases of the scanMAX Kinase assay panel (Homo sapiens, UniProt Q8NI60); conditions: ADCK3; 1 uM
T12 construct: purchased DiscoverX Co. (contract measurement) scanMAX Kinase assay panel
Procedure, shortened: as §1

[13] = biological target: T13, kinases of the scanMAX Kinase assay panel (Homo sapiens, UniProt Q99759); conditions: MAP3K3; 1 uM
T13 construct: purchased DiscoverX Co. (contract measurement) scanMAX Kinase assay panel
T13 sequence (Q99759 1-626): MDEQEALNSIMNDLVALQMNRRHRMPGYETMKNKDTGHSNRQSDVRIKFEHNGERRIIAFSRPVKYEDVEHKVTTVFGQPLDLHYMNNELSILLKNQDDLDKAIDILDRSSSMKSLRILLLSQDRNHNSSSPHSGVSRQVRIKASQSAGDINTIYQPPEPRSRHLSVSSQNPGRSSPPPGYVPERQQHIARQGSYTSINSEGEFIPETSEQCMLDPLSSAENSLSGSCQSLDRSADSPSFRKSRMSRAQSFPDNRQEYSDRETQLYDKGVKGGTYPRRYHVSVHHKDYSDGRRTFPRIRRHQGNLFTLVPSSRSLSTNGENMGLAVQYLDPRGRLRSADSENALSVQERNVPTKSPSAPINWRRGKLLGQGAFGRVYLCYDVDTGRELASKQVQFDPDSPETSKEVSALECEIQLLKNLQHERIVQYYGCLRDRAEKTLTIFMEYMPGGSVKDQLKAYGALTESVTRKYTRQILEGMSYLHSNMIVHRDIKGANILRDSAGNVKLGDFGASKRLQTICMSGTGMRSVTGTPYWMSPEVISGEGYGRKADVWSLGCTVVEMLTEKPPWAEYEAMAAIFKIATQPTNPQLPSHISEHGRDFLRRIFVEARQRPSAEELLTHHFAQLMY
Procedure, shortened: as §1

[14] = biological target: T14, kinases of the scanMAX Kinase assay panel (Homo sapiens, UniProt Q9UPE1); conditions: kinase SRPK3; 1 uM in DMSO
T14 construct: purchased DiscoverX Co. (contract measurement) scanMAX Kinase assay panel
Procedure, shortened: as §1

T7 sequence (P57059 whole entry): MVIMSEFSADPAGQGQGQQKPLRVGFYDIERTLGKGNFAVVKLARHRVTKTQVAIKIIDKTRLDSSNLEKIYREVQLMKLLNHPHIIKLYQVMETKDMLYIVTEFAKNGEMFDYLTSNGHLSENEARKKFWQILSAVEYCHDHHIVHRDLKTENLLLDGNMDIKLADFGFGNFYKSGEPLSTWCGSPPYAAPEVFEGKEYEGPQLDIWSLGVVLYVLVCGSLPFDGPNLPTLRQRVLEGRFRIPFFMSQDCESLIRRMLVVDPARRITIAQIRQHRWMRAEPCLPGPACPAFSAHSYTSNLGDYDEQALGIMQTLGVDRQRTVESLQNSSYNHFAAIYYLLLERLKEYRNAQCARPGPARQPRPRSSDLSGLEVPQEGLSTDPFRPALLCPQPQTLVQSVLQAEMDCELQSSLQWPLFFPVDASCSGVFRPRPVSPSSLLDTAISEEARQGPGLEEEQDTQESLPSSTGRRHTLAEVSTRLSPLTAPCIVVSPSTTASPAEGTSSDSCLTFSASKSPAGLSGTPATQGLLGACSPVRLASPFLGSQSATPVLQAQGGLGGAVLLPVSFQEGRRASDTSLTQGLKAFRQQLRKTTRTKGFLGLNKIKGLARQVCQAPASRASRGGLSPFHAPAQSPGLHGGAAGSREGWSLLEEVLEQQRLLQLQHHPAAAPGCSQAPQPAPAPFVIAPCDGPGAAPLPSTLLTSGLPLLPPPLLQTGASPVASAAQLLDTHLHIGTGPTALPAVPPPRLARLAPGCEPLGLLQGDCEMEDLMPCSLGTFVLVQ
T5 sequence (P42336 whole entry E542K): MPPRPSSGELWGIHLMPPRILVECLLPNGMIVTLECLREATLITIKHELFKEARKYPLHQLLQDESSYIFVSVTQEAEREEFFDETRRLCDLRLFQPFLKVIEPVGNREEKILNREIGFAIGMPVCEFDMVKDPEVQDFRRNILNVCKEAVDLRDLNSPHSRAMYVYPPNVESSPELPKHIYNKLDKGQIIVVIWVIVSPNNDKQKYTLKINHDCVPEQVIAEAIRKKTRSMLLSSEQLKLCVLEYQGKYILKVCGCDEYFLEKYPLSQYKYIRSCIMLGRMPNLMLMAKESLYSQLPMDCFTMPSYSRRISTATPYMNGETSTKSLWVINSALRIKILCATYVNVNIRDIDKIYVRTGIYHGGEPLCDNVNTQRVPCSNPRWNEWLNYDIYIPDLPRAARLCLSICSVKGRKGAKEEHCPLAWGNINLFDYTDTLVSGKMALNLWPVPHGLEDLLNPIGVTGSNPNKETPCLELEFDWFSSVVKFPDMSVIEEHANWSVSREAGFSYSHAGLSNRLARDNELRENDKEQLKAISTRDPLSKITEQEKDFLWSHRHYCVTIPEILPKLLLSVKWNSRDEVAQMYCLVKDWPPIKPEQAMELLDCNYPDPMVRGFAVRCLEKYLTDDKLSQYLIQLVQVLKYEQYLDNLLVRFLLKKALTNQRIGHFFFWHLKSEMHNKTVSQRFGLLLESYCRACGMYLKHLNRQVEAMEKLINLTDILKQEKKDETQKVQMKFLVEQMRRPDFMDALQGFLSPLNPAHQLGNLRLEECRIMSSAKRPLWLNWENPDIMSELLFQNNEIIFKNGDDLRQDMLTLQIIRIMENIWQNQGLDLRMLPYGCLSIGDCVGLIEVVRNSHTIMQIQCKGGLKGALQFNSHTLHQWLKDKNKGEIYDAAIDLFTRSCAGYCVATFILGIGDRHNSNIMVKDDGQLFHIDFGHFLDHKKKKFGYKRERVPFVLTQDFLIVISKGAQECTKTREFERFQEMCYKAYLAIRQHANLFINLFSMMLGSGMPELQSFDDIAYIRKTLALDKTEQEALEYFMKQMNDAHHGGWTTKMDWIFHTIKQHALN
T8 sequence (Q04759 whole entry): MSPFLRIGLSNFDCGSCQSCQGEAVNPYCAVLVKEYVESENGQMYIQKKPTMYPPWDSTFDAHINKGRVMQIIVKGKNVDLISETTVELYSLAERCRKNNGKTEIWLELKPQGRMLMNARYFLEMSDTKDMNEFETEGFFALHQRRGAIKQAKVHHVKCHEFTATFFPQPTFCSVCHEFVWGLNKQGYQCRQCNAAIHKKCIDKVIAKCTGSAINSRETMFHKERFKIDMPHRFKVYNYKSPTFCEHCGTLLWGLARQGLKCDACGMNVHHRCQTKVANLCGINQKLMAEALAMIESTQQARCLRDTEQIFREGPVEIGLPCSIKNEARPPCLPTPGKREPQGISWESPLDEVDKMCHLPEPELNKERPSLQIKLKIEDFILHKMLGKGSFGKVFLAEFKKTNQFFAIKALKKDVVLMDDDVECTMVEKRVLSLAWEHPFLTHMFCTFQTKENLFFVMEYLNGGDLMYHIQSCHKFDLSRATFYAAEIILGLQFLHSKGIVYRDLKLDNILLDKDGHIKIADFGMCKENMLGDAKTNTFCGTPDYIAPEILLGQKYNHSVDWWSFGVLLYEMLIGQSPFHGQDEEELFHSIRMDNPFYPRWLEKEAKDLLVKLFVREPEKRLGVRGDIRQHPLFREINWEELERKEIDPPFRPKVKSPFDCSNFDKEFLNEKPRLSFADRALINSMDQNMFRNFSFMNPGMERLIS
T3 sequence (P00533 25-1210 G719S): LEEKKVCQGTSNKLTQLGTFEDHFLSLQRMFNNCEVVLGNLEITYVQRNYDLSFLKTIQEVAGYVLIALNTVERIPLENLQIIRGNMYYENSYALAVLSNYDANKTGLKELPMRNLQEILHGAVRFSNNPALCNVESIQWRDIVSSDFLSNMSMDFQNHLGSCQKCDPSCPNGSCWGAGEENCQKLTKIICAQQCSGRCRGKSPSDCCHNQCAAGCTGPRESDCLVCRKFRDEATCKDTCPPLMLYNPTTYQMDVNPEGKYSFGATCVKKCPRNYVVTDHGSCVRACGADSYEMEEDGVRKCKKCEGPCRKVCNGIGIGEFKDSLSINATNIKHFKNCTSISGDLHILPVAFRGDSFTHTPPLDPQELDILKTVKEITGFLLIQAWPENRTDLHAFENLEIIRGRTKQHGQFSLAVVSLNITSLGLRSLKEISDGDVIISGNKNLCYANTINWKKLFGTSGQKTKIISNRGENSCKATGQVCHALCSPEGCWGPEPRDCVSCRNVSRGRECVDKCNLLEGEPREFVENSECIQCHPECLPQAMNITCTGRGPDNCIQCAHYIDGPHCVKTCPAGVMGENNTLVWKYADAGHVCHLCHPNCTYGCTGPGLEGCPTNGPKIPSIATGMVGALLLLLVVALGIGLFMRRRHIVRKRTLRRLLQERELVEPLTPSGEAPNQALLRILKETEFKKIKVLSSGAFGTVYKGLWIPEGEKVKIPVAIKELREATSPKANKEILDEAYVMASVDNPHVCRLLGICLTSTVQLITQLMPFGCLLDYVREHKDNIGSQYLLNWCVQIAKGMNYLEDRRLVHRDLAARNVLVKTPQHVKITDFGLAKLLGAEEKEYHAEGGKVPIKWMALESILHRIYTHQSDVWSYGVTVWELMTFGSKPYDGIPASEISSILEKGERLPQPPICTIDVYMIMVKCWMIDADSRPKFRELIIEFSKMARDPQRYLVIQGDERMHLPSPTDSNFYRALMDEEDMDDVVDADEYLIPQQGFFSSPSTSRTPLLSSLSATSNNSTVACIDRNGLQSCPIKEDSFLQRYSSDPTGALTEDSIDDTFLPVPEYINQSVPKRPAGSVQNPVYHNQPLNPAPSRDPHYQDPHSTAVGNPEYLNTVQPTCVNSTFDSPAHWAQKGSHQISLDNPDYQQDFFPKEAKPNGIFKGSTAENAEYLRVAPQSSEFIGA
T6 sequence (P49137 whole entry): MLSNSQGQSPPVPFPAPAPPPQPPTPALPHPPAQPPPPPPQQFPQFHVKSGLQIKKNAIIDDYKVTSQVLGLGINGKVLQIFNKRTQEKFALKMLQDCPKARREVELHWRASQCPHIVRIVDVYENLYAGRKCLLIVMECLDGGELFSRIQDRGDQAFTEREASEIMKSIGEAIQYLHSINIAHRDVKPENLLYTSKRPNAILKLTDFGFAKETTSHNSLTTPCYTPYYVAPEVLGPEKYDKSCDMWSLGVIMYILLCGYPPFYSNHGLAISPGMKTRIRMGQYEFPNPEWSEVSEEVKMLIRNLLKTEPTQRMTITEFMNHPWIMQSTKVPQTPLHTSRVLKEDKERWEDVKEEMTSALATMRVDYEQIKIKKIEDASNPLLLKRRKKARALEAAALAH
T4 sequence (P09769 whole entry): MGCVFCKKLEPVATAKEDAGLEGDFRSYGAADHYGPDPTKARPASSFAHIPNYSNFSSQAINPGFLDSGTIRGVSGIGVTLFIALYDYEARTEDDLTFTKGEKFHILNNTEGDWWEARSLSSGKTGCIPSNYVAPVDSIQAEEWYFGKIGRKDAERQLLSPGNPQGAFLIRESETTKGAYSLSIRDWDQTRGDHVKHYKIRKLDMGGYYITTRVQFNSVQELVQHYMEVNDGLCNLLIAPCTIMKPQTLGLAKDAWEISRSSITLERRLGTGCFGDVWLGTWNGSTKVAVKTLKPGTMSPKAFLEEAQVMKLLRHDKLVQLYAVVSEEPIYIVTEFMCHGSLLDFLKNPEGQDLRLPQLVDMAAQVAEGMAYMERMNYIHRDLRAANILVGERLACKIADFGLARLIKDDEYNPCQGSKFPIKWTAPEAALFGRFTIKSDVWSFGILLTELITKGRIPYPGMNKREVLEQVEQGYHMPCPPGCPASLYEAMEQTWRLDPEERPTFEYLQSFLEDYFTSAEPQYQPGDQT

Structure (SMILES) | remaining binding at 1 µM [1] | remaining binding at 1 µM [2] | remaining binding at 1 µM [3] | remaining binding at 1 µM [4] | remaining binding at 1 µM [5] | remaining binding at 1 µM [6] | remaining binding at 1 µM [7] | remaining binding at 1 µM [8] | remaining binding at 1 µM [9] | remaining binding at 1 µM [10] | remaining binding at 1 µM [11] | remaining binding at 1 µM [12] | remaining binding at 1 µM [13] | remaining binding at 1 µM [14]
CCNc1nc(Nc2ccc(C(=O)N3CCC(N4CCOCC4)CC3)cc2OC)nc2[nH]cc(C(F)(F)F)c12 [Example 104, (4-((4-(ethylamino)-5-(trifluoromethyl)-7H-pyrrolo[2,3-d]pyrimidine-2-yl)amino)-3-methoxyphenyl)(4-morpholinopiperidine-1-yl)methanone] | 75% | 100% | 100% | 100% | 83% | 24% | 100% | 100% | 100% | 100% | 91% | 100% | 87% | 100%
CC1(Nc2nc(Nc3cnn([C@H]4CCN(C5COC5)C[C@@H]4F)c3Cl)nc3[nH]cc(C#N)c23)CC1 [Example 52, 2-((5-chloro-1-((3S,4S)-3-fluoro-1-(oxetane-3-yl)piperidine-4-yl)-1H-pyrazole-4-yl)amino)((1-methylcyclopropyl)amino)-7H-pyrrolo[2,3-d]pyrimidine-5-carbonitrile] | 91% | 26% | 57% | 10% | 77% | 70% | 78% | 47% | 50% | 78% | 6.4% | 98% | 0.1% | 2.5%
CNc1nc(Nc2ccc(C(=O)N3CCOCC3)cc2OC)nc2[nH]cc(C#N)c12 [Example 1, 2-((2-methoxy-4-(morpholine-4-carbonyl)phenyl)amino)-4-(methylamino)-7H-pyrrolo[2,3-d]pyrimidine-5-carbonitrile] | 89% | 85% | 82% | 94% | 74% | 4.6% | 97% | 95% | 94% | 53% | 50% | 94% | 98% | 93%
